Laboratory results: patent publication US20230293479A1, “MEDICINAL COMPOUNDS AND NUTRITIONAL SUPPLEMENTS” (RECEPTOR HOLDINGS, INC., priority 2017, published 2023)

Columns and labels:
[1] = Example 4: cannabis/SNAC oral rat pharmacokinetic (PK) study; format: in vivo, rats; details: for Cmax increase over cannabis alone: oral gavage, 50 mg/kg cannabis extract with 500 mg/kg SNAC versus 25 mg/kg cannabis alone
Experimental: Example 4. Summary of cannabis/SNAC oral rat pharmacokinetic (PK) study.
Methods. Animals were dosed on Day 1 and a series of blood samples were collected over a period of 4 hours post dose for pharmacokinetic evaluation. Animals were euthanized following collection of their last blood sample.

study participants [2] = assay: Example 1: onset and duration of action of orally administered cannabis/SNAC composition (self-reported euphoria/dysphoria, 200 mg SNAC); format: in vivo, human; details: oral cannabinoid formulation, 200 mg SNAC
Experimental: Example 1. […] This study was designed to assess the utility of SNAC in enabling a rapid-acting oral form of cannabis.
Selection of Participants. Six study participants were recruited to ingest cannabis compositions and record the onset, duration, and intensity of cannabis-induced euphoria and/or dysphoria.
(§1) Formulations. The selected cannabis concentrate is commercially available and was provided to participants in an ethanol solution. The concentrate contains 8 mg THC per dose. It was selected because it contains a high percentage of THC, which provides a noticeable effect on user-reported “euphoria”.
(§2) Methods. For the Control experiment, each participant mixed the cannabis concentrate with 15 ml (one tablespoon) of aqueous ethanol, and immediately swallowed the mixture.
(§3) For both the Control experiment and the Test experiment, each participant recorded the time of dose administration, the time of onset of euphoria and/or dysphoria, and the observed level of euphoria and/or dysphoria in fifteen minute intervals for five hours following administration of the cannabis dose. Euphoria and dysphoria were reported using a scale value, in a range from 1-10.

study participants [3] = assay: Example 2: onset and duration of action of orally administered cannabis/SNAC composition at a low SNAC dose (100 mg); format: in vivo, human; details: oral cannabinoid formulation, 100 mg SNAC
Experimental: Example 2. […] This study was designed to assess the utility of SNAC in enabling a rapid-acting oral form of cannabis at a low dose.
Selection of Participants. Three study participants were recruited to ingest cannabis compositions and record the onset, duration, and intensity of cannabis-induced euphoria and/or dysphoria.
as §1, §2, §3

[4] = cited from earlier work

SMILES	Cmax increase over cannabis alone ([1]; rats)	mean maximum concentration Cmax ([1]; rats, single oral gavage, cannabis extract (THC/CBD 1:1) with SNAC, range over Groups 3-5 (25/250, 25/500, 50/500 mg extract/kg and mg SNAC/kg))	AUC0-Tlast ([1]; rats, single oral gavage, cannabis extract with SNAC, range over Groups 3-5)	time to reach the mean maximum plasma concentration (Tmax) ([1]; rats, single oral gavage, cannabis extract with SNAC, range over Groups 3-5, post dose)	effect of the absorption enhancer on the cannabinoid duration of action (study participants [2])	effect of the absorption enhancer on the duration of action (study participants [3])	effect on cannabinoid absorption ([1]; administered to rats by oral gavage)	duration of appetite stimulant effect ([4]; after administration)	onset of action ([4]; after oral administration)	peak effect ([4]; after oral administration)	administered dose reaching the systemic circulation ([4]; oral, first pass hepatic metabolism and high lipid solubility)
C=C(C)[C@@H]1CCC(C)=C[C@H]1c1c(O)cc(CCCCC)cc1O [CBD, cannabidiol]	14.2 fold	31.7 to 159.3 ng/mL	13.17 to 382.14 ng·h/mL	15 to 60 min	–	–	–	–	–	–	–
O=C([O-])CCCCCCCNC(=O)c1ccccc1O.[Na+] [SNAC, sodium N-[8-(2-hydroxybenzoyl)amino] caprylate]	–	–	–	–	no effect	no effect	enhances cannabinoid absorption	–	–	–	–
CCCCCc1cc(O)c2c(c1)OC(C)(C)[C@@H]1CCC(C)=C[C@@H]21 [THC, (−)-trans-delta-9-tetrahydrocannabinol]	6.9 fold	–	–	–	–	–	–	≥ 24 h	0.5 to 1 h	2 to 4 h	10-20%
